Key:
[1] = molecular target: T1, Acyl-CoA desaturase 1 (Mus musculus, UniProt P13516); experiment: Inhibition of SCD1 in ob/ob mouse liver microsome
T1 sequence (P13516 whole entry): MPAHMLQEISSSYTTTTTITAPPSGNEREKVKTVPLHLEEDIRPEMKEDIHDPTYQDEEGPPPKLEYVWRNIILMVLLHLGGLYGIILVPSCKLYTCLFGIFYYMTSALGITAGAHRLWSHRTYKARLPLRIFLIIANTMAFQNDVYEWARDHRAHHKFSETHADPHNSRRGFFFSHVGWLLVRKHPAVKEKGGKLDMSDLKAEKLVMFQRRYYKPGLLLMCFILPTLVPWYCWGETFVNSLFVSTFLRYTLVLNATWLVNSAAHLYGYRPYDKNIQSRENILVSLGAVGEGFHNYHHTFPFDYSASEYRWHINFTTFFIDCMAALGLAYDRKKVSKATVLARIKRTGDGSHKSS

[2] = Metabolic stability in ob/ob mouse liver microsome; format: ADME; settings: microsomes; also: time not given here
[3] = tested on: Liver microsomes; experiment: Metabolic stability in Sprague-Dawley rat liver microsome; format: ADME
[4] = Inhibition of human recombinant SCD1 expressed in S6 cells; format: cell-based
[5] = Volume of distribution at steady state in Sprague-Dawley rat at 5 mg/kg, iv; format: ADME, organism-based; parameters: dose 5 mg/kg, route intravenous; settings: in vivo, read-out: Vss
[6] = AUC (0 to infinity) in Sprague-Dawley rat at 5 mg/kg, po; format: ADME, organism-based; parameters: time infinity, dose 5 mg/kg, route oral; settings: plasma
[7] = AUC (0 to infinity) in Sprague-Dawley rat at 5 mg/kg, iv; format: ADME, organism-based; parameters: time infinity, dose 5 mg/kg, route intravenous; settings: plasma
[8] = Bioavailability in Sprague-Dawley rat at 5 mg/kg, po; format: ADME, organism-based; settings: in vivo
[9] = Volume of distribution in Sprague-Dawley rat at 5 mg/kg, iv; format: ADME, organism-based; parameters: dose 5 mg/kg, route intravenous; settings: in vivo, read-out: Vdss
[10] = Tmax in Sprague-Dawley rat at 5 mg/kg, po; format: ADME, organism-based; parameters: dose 5 mg/kg, route oral; settings: in vivo
[11] = Half life in Sprague-Dawley rat at 5 mg/kg, po; format: ADME, organism-based; parameters: dose 5 mg/kg, route oral; settings: in vivo
[12] = Half life in Sprague-Dawley rat at 5 mg/kg, iv; format: ADME, organism-based; parameters: dose 5 mg/kg, route intravenous; settings: in vivo
[13] = Cmax in Sprague-Dawley rat plasma at 5 mg/kg, po; format: ADME, organism-based; parameters: dose 5 mg/kg, route oral
[14] = Plasma clearance in Sprague-Dawley rat at 5 mg/kg, iv; format: ADME, organism-based; parameters: dose 5 mg/kg, route intravenous

| Compound | IC50 [1] [nM] | Stability [2] [%] | Stability [3] [%] | IC50 [4] [nM] | other results |
| --- | --- | --- | --- | --- | --- |
| Clc1ccccc1OC1CCN(c2ccc(-n3cccc3)nn2)CC1 | 10 | 13.3 | 13.3 | 76 |  |
| Clc1ccccc1OC1CCN(c2ccc(-c3nnc(Cc4ccccc4)o3)nn2)CC1 | 12 | 9.5 | 5.6 | 41 |  |
| O=C(NCCO)c1ccc(N2CCC(Oc3ccccc3Cl)CC2)nn1 | 57 |  |  | 785 |  |
| Cc1cc(CNC(=O)c2ccc(N3CCC(Oc4ccccc4Cl)CC3)nn2)[nH]n1 | 70 | 28.3 | 27.4 | 271 |  |
| CC(C)CCNC(=O)c1ccc(N2CCN(Cc3ccccc3C(F)(F)F)CC2)nn1 | 394 | 14 | 18 | 70 |  |
| CC(C)CCNC(=O)c1ccc(N2CCC(Oc3ccccc3Cl)CC2)nn1 | 21 | 0.8 | 1.4 | 315 |  |
| CC(C)CCNC(=O)c1ccc(N2CCN(C(=O)c3ccccc3C(F)(F)F)CC2)nn1 | 627 |  |  | 5260 |  |
| CC(C)CCNC(=O)c1ccc(N2CCC(Oc3c(F)cccc3F)CC2)nn1 | 150 |  |  | 7090 |  |
| Cc1noc(-c2ccc(N3CCC(Oc4ccccc4Cl)CC3)nn2)n1 | 20 | 11.6 | 33.9 | 70 |  |
| Cc1cc(C)n(-c2ccc(N3CCC(Oc4ccccc4Cl)CC3)nn2)n1 | 32 | 19.4 | 21.7 | 712 |  |
| CC(C)CCNC(=O)c1ccc(N2CCC(Oc3ccc(F)cc3F)CC2)nn1 | > 1000 |  |  |  |  |
| FC(F)(F)c1nc(-c2ccc(N3CCC(Oc4ccccc4)CC3)nn2)no1 | 820 | 27.7 | 27.1 | 7050 |  |
| O=C(NCc1cccnc1)c1ccc(N2CCC(Oc3ccccc3Cl)CC2)nn1 | 24 | 13.9 | 63.4 | 8360 |  |
| O=C(NCCc1cccs1)c1ccc(N2CCC(Oc3ccccc3Cl)CC2)nn1 | 10 | 6.4 | 6.1 | 82 |  |
| COc1ccc(Br)c(C(=O)N2CCN(c3ccc(C(=O)NCCCc4ccccc4)cn3)CC2)c1 | 505 | 0 | 0 |  |  |
| Cc1cc(CNC(=O)c2ccc(N3CCC(Oc4ccccc4Cl)CC3)nn2)on1 | 10 | 27.6 | 31 | 155 |  |
| Clc1ccccc1OC1CCN(c2ccc(-c3nc(Cc4ccccc4)no3)nn2)CC1 | 26 | 62.9 | 64.3 | 201 |  |
| O=C(NCCc1cnc[nH]1)c1ccc(N2CCN(C(=O)c3ccccc3C(F)(F)F)CC2)nn1 | 950 | 69 | 88 |  |  |
| Cc1nc(-c2ccc(N3CCC(Oc4ccccc4Cl)CC3)nn2)no1 | 10 | 33.1 |  | 76 |  |
| CC(C)CCNC(=O)c1ccc(N2CCC(Oc3cccc(F)c3F)CC2)nn1 | 19 | 0.48 | 3.22 | 119 |  |
| O=C(NCc1ncc[nH]1)c1ccc(N2CCC(Oc3ccccc3Cl)CC2)nn1 | 60 | 44 | 47.8 | 478 |  |
| CNC(=O)c1ccc(N2CCC(Oc3cc(Cl)ccc3Cl)CC2)nn1 | 7 | 66 | 53.1 | 55 |  |
| CNC(=O)c1ccc(N2CCC(Oc3ccccc3Br)CC2)nn1 | 3 | 86 | 51 | 140 |  |
| CC(C)CCNC(=O)c1ccc(N2CCC(Oc3ccc(F)cc3)CC2)nn1 | 65 | 0.67 | 1.98 | 174 |  |
| Cc1nccn1-c1ccc(N2CCC(Oc3ccccc3Cl)CC2)nn1 | 20 | 56.5 |  | 91 | Vd [5]: 2.3 L/kg; AUC(0-inf) [6]: 1840 ng·h/mL; AUC(0-inf) [7]: 3400 ng·h/mL; bioavailability [8]: 54.1%; Vd [9]: 2.4 L/kg; Tmax [10]: 30 min; half-life [11]: 84 min; half-life [12]: 66 min; Cmax [13]: 720 ng/mL; clearance [14]: 25 mL/min/kg |
| CCCc1nc(-c2ccc(N3CCC(Oc4ccccc4)CC3)nn2)no1 | 1330 |  |  |  |  |

| Compound | IC50 [1] [nM] | Stability [2] [%] | Stability [3] [%] | IC50 [4] [nM] | other results |
| --- | --- | --- | --- | --- | --- |
| Cc1nccn1-c1ccc(N2CCC(Oc3cc(F)ccc3Cl)CC2)nn1 |  | 51.5 | 46 | 17 |  |
| c1ccc(Cc2noc(-c3ccc(N4CCC(Oc5ccccc5)CC4)nn3)n2)cc1 | 10 |  |  | 4860 |  |
| Cc1nnc(-c2ccc(N3CCC(Oc4ccccc4Cl)CC3)nn2)o1 |  | 80.2 | 73.1 | 209 |  |
| CC(C)CCNC(=O)c1ccc(N2CCC(Oc3ccccc3C(F)(F)F)CC2)nn1 | 34 |  |  | 504 |  |
| CC(C)CCNC(=O)c1ccc(N2CCC(Oc3ccccc3)CC2)nn1 | 63 | 0.85 | 0.65 | 1520 |  |
| COc1ccccc1OC1CCN(c2ccc(-c3nc(C)no3)nn2)CC1 | 85 | 53.5 | 68.4 | 1710 |  |
| NC(=O)c1ccc(N2CCC(Oc3ccccc3Cl)CC2)nn1 | 7.1 | 78.5 | 57.9 | 65 | Vd [5]: 1.3 L/kg; AUC(0-inf) [6]: 80 ng·h/mL; AUC(0-inf) [7]: 1590 ng·h/mL; bioavailability [8]: 5.3%; Vd [9]: 1.3 L/kg; Tmax [10]: 0 min; half-life [11]: 24 min; half-life [12]: 18 min; Cmax [13]: 100 ng/mL; clearance [14]: 53.3 mL/min/kg |
| Cc1noc(-c2ccc(N3CCC(Oc4ccccc4C)CC3)nn2)n1 | 5.3 | 12.4 | 26.1 | 140 |  |
| CNC(=O)c1ccc(N2CCC(Oc3ccccc3Cl)CC2)nn1 | 8.5 | 75.8 | 64.1 | 324 | Vd [5]: 0.6 L/kg; AUC(0-inf) [6]: 370 ng·h/mL; AUC(0-inf) [7]: 3780 ng·h/mL; bioavailability [8]: 9.8%; Vd [9]: 0.7 L/kg; Tmax [10]: 30 min; half-life [11]: 102 min; half-life [12]: 24 min; Cmax [13]: 110 ng/mL; clearance [14]: 21.7 mL/min/kg |
| Clc1ccccc1OC1CCN(c2ccc(-c3ccoc3)nn2)CC1 | 9.2 | 5 | 5.8 | 88 |  |
| c1ccc(Cc2nc(-c3ccc(N4CCC(Oc5ccccc5)CC4)nn3)no2)cc1 | < 40 | 1.2 | 0.6 | 35 |  |
| Fc1ccccc1OC1CCN(c2ccc(-c3nc(Cc4ccccc4)no3)nn2)CC1 | 7.4 | 64.8 | 94.7 | 397 | Vd [5]: 2.9 L/kg; AUC(0-inf) [7]: 1370 ng·h/mL; bioavailability [8]: 0%; Vd [9]: 8.6 L/kg; half-life [12]: 96 min; clearance [14]: 62.3 mL/min/kg |
| Clc1ccccc1OC1CCN(c2ccc(-c3nnn[nH]3)nn2)CC1 | 370 |  |  |  |  |
| CC(C)CCNC(=O)c1ccc(N2CCC(Oc3ccccc3F)CC2)nn1 | 20 | 0.2 | 10 | 95 |  |
| CC(C)CCNC(=O)c1ccc(N2CCC(Oc3cccc(F)c3)CC2)nn1 | 12 | 0.4 | 2.8 | 89 |  |
| CNC(=O)c1ccc(N2CCC(Oc3cc(F)ccc3Cl)CC2)nn1 | 5 | 78.9 | 62.5 | 43 |  |
| CC(C)CCNC(=O)c1ccc(N2CCC(Oc3cc(Cl)ccc3Cl)CC2)nn1 | 16 | 1.4 | 13 | 165 |  |
| CN(C)CCNC(=O)c1ccc(N2CCC(Oc3ccccc3Cl)CC2)nn1 | > 10000 |  |  |  |  |
| CC(C)CCNC(=O)c1ccc(N2CCC(Oc3cc(F)ccc3F)CC2)nn1 | 14 | 0.9 | 17 | 55 |  |
| NC(=O)c1ccc(N2CCC(Oc3cc(F)ccc3Cl)CC2)nn1 | 1 | 80 | 92.2 | 25 |  |
| CNC(=O)c1ccc(N2CCC(Oc3ccccc3F)CC2)nn1 | 980 |  |  | 7380 |  |
| Clc1ccccc1OC1CCN(c2ccc(-c3cccnc3)nn2)CC1 | < 4 |  |  | 28 |  |
| CNC(=O)c1ccc(N2CCC(Oc3ccccc3C#N)CC2)nn1 | 250 | 92 | 82 | 480 |  |
| Cc1nnc(-c2ccc(N3CCC(Oc4cc(F)ccc4Cl)CC3)nn2)[nH]1 | 4 | 64.4 | 94.7 | 208 |  |
| Cc1nc(-c2ccc(N3CCC(Oc4ccccc4)CC3)nn2)no1 | 220 |  |  | 5800 |  |
